# Target: T1, human ferroportin (Homo sapiens, UniProt Q9NP59)
# T1 construct: luciferase reporter (read with the Nano-Glo Luciferase Assay System); expressed in transfected cells; host or cells: CHO cells, stably transfected, expression induced with doxycycline
# T1 sequence (Q9NP59 1-571): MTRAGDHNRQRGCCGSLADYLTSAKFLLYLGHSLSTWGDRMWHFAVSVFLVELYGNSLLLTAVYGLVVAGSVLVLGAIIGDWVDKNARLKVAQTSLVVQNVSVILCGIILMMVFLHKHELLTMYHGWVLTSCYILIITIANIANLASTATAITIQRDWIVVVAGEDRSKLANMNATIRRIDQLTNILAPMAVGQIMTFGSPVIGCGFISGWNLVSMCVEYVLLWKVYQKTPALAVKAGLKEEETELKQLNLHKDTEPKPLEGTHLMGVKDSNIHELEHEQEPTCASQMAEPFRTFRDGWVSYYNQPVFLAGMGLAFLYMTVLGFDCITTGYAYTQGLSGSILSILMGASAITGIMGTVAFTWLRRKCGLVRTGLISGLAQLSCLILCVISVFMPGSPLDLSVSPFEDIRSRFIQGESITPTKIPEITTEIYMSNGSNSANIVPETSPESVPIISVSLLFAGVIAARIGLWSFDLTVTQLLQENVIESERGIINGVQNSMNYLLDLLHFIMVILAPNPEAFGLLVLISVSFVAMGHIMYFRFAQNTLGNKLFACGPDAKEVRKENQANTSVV
# Assay: Biological in-vitro ferroportin internalization assay (luciferase reporter)
# Assay type: cell-based
# Settings: average pEC50; stably-transfected CHO cell line expressing human ferroportin tagged to a luciferase reporter; 6 h incubation with test compound
# In short: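 Stably transfected CHO cells expressing luciferase-tagged human ferroportin, plated 24 h with ferric ammonium citrate and induced with doxycycline for 24 h. Compounds incubated 6 h, then luciferase activity measured by Nano-Glo; average pEC50 reported.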
row,SMILES,pEC50
1,"CN(CC(=O)N1CCC(F)(F)CC1)c1nc(-c2cc(OCCO)ccn2)nc2c1CCC2 [Compound 355, 1-(4,4-difluoropiperidin-1-yl)-2-({2-[4-(2-hydroxyethoxy)pyridin-2-yl]-5H,6H,7H-cyclopenta[d]pyrimidin-4-yl}(methyl)amino)ethan-1-one]",7.7
2,"COc1cccnc1-c1nc2c(c(N(C)CC(=O)NC(C)(C)C)n1)CCC2 [Compound 180, N-tert-butyl-2-{[2-(3-methoxypyridin-2-yl)-5H,6H,7H-cyclopenta[d]pyrimidin-4-yl](methyl)amino}acetamide]",5.2
3,"CN(CC(=O)NC1(C)CCCC1)c1nc(-c2cc(OCCO)ccn2)nc2c1CCC2 [Compound 179, 2-({2-[4-(2-hydroxyethoxy)pyridin-2-yl]-5H,6H,7H-cyclopenta[d]pyrimidin-4-yl}(methyl)amino)-N-(1-methylcyclopentyl)acetamide]",7.7
4,"CCN(Cc1ncccn1)c1nc(-c2ccccn2)nc2c1CCC2 [Compound 80, N-ethyl-2-(pyridin-2-yl)-N-[(pyrimidin-2-yl)methyl]-5H,6H,7H-cyclopenta[d]pyrimidin-4-amine]",6.8
5,"CN(CC(=O)NC(C)(C)C)c1nc(-c2cc3[nH]ncc3cn2)nc2c1CCC2 [Compound 176, N-tert-butyl-2-[methyl(2-{1H-pyrazolo[4,3-c]pyridin-6-yl}-5H,6H,7H-cyclopenta[d]pyrimidin-4-yl)amino]acetamide]",7.8
6,"Cc1cccnc1-c1nc2c(c(N(C)CC(=O)NC(C)(C)C)n1)CCC2 [Compound 103, N-tert-butyl-2-{methyl[2-(3-methylpyridin-2-yl)-5H,6H,7H-cyclopenta[d]pyrimidin-4-yl]amino}acetamide]",6.4
7,"COc1cccc(NC(=O)CN(C)c2nc(-c3cc(OCCO)ccn3)nc3c2CCC3)c1 [Compound 279, 2-({2-[4-(2-hydroxyethoxy)pyridin-2-yl]-5H,6H,7H-cyclopenta[d]pyrimidin-4-yl}(methyl)amino)-N-(3-methoxyphenyl)acetamide]",8.2
8,"COc1ccnc(-c2nc3c(c(N(C)CC(=O)N[C@H]4CCC[C@@H]4O)n2)CCC3)c1 (stereo in doubt) [Compound 173, N-[(1S,2S)-2-hydroxycyclopentyl]-2-{[2-(4-methoxypyridin-2-yl)-5H,6H,7H-cyclopenta[d]pyrimidin-4-yl](methyl)amino}acetamide]",6.8
9,"COc1cnc(NC(=O)CN(C)c2nc(-c3cc(OCCO)ccn3)nc3c2CCC3)cn1 [Compound 290, 2-({2-[4-(2-hydroxyethoxy)pyridin-2-yl]-5H,6H,7H-cyclopenta[d]pyrimidin-4-yl}(methyl)amino)-N-(5-methoxypyrazin-2-yl)acetamide]",7.6
10,"Cc1ccc(NC(=O)[C@@H](C)N(C)c2nc(-c3cc(OCCO)ccn3)nc3c2CCC3)cn1 [Compound 316, (2R)-2-({2-[4-(2-hydroxyethoxy)pyridin-2-yl]-5H,6H,7H-cyclopenta[d]pyrimidin-4-yl}(methyl)amino)-N-(6-methylpyridin-3-yl)propanamide]",7.8
11,"c1nc(-c2nc3c(c(N4CCCCCC4)n2)CCC3)cs1 [Compound 94, 1-[2-(1,3-thiazol-4-yl)-5H,6H,7H-cyclopenta[d]pyrimidin-4-yl]azepane]",6.3
12,"c1ccc(-c2nc3c(c(N4CCCCCC4)n2)CCC3)nc1 [Compound 92, 1-[2-(pyridin-2-yl)-5H,6H,7H-cyclopenta[d]pyrimidin-4-yl]azepane]",6.5
13,"COc1ccnc(-c2nc3c(c(N(C)CC(=O)NC(C)(C)C)n2)CCC3)c1 [Compound 34, N-tert-butyl-2-{[2-(4-methoxypyridin-2-yl)-5H,6H,7H-cyclopenta[d]pyrimidin-4-yl](methyl)amino}acetamide]",7.9
14,"COc1ccc(NC(=O)CN(C)c2nc(-c3cn(C)cn3)nc3c2CCC3)cn1 [Compound 201, N-(6-methoxypyridin-3-yl)-2-{methyl[2-(1-methyl-1H-imidazol-4-yl)-5H,6H,7H-cyclopenta[d]pyrimidin-4-yl]amino}acetamide]",7.4
15,"CN(CC(=O)Nc1ccc(F)nc1)c1nc(-c2cc3cn[nH]c3cn2)nc2c1CCC2 [Compound 266, N-(6-fluoropyridin-3-yl)-2-[methyl(2-{1H-pyrazolo[3,4-c]pyridin-5-yl}-5H,6H,7H-cyclopenta[d]pyrimidin-4-yl)amino]acetamide]",7.3
16,"CN(CC(=O)NC(C)(C)C)c1nc(-c2cc(OCCN3C[C@H]4C[C@@H]3CO4)ccn2)nc2c1CCC2 [Compound 462, N-tert-butyl-2-{methyl[2-(4-{2-[(1R,4R)-2-oxa-5-azabicyclo[2.2.1]heptan-5-yl]ethoxy}pyridin-2-yl)-5H,6H,7H-cyclopenta[d]pyrimidin-4-yl]amino}acetamide]",8.4
17,"CN(C)c1ccnc(-c2nc3c(c(N(C)CC(=O)NC(C)(C)C)n2)CCC3)c1 [Compound 102, N-tert-butyl-2-({2-[4-(dimethylamino)pyridin-2-yl]-5H,6H,7H-cyclopenta[d]pyrimidin-4-yl}(methyl)amino)acetamide]",7.1
18,"CN(CC(=O)NC1CCCCC1)c1nc(-c2cn(C)cn2)nc2c1CCC2 [Compound 142, N-cyclohexyl-2-{methyl[2-(1-methyl-1H-imidazol-4-yl)-5H,6H,7H-cyclopenta[d]pyrimidin-4-yl]amino}acetamide]",7.4
19,"Cc1cc(-c2nc3c(c(N(C)CC(=O)NC(C)(C)C)n2)CCC3)ncc1F [Compound 303, N-tert-butyl-2-{[2-(5-fluoro-4-methylpyridin-2-yl)-5H,6H,7H-cyclopenta[d]pyrimidin-4-yl](methyl)amino}acetamide]",6.4
20,"C[C@H](O)COc1ccnc(-c2nc3c(c(N(C)CC(=O)NC4(C)CCC4)n2)CCC3)c1 [Compound 378, 2-[(2-{4-[(2S)-2-hydroxypropoxy]pyridin-2-yl}-5H,6H,7H-cyclopenta[d]pyrimidin-4-yl)(methyl)amino]-N-(1-methylcyclobutyl)acetamide]",8
21,"C[C@H]1C[C@@H](Oc2ccnc(-c3nc4c(c(N(C)CC(=O)NC(C)(C)C)n3)CCC4)c2)CN1C [Compound 502, N-tert-butyl-2-{[2-(4-{[(3R,5S)-1,5-dimethylpyrrolidin-3-yl]oxy}pyridin-2-yl)-5H,6H,7H-cyclopenta[d]pyrimidin-4-yl](methyl)amino}acetamide]",8.2
22,"CN(CC(=O)N[C@@H]1CCOC1)c1nc(-c2cc(OCC(C)(C)O)ccn2)nc2c1CCC2 [Compound 422, 2-({2-[4-(2-hydroxy-2-methylpropoxy)pyridin-2-yl]-5H,6H,7H-cyclopenta[d]pyrimidin-4-yl}(methyl)amino)-N-[(3R)-oxolan-3-yl]acetamide]",7.4
23,"CN(CC(=O)N1CCC(F)(F)CC1)c1nc(-c2cc(OCC(C)(C)O)ccn2)nc2c1CCC2 [Compound 391, 1-(4,4-difluoropiperidin-1-yl)-2-({2-[4-(2-hydroxy-2-methylpropoxy)pyridin-2-yl]-5H,6H,7H-cyclopenta[d]pyrimidin-4-yl}(methyl)amino)ethan-1-one]",7.7
24,"CN(C)CCOc1ccnc(-c2nc3c(c(N(C)CC(=O)Nc4cnn(C5CC5)c4)n2)CCC3)c1 [Compound 410, N-(1-cyclopropyl-1H-pyrazol-4-yl)-2-[(2-{4-[2-(dimethylamino)ethoxy]pyridin-2-yl}-5H,6H,7H-cyclopenta[d]pyrimidin-4-yl)(methyl)amino]acetamide]",7.3
25,"O=C1CCN(c2nc(-c3ccccn3)nc3c2CCC3)CCN1 [Compound 50, 1-[2-(pyridin-2-yl)-5H,6H,7H-cyclopenta[d]pyrimidin-4-yl]-1,4-diazepan-5-one]",5.6
26,"CN(CC(=O)NC(C)(C)C)c1nc(-c2cc(OCCn3ccnc3)ccn2)nc2c1CCC2 [Compound 465, N-tert-butyl-2-[(2-{4-[2-(1H-imidazol-1-yl)ethoxy]pyridin-2-yl}-5H,6H,7H-cyclopenta[d]pyrimidin-4-yl)(methyl)amino]acetamide]",8.3
27,"COc1ccnc(-c2nc3c(c(N(C)CC(=O)NC4(C)CCOC4)n2)CCC3)c1 (centres unmarked) [Compound 146, 2-{[2-(4-methoxypyridin-2-yl)-5H,6H,7H-cyclopenta[d]pyrimidin-4-yl](methyl)amino}-N-(3-methyloxolan-3-yl)acetamide]",6.8
28,"CN(CC(=O)NC(C)(C)C)c1nc(-c2cc(OC[C@H]3CCCN3C)ccn2)nc2c1CCC2 [Compound 411, N-tert-butyl-2-{methyl[2-(4-{[(2R)-1-methylpyrrolidin-2-yl]methoxy}pyridin-2-yl)-5H,6H,7H-cyclopenta[d]pyrimidin-4-yl]amino}acetamide]",8.2
29,"CN(CC(=O)Nc1cnn(C)c1)c1nc(-c2cc3ccccc3cn2)nc2c1CCC2 [Compound 218, 2-{[2-(isoquinolin-3-yl)-5H,6H,7H-cyclopenta[d]pyrimidin-4-yl](methyl)amino}-N-(1-methyl-1H-pyrazol-4-yl)acetamide]",7
